Non-standard residues stand in square brackets, D forms with d. Residues, ends and D or L forms follow the SMILES beside them. Aib = CC(C)(N)C(=O)O
Experiment: Solubility of peptides and HBS helices
Assay type: physicochemical
Procedure: Design of Ras/Sos inhibitors was performed starting with the wild-type Sos929-944 α-H sequence. Additional modifications were introduced in order to improve the solubility of the HBS peptides. Charged residues were introduced at positions not involved in Ras binding. Computational alanine scanning was performed on two separate crystal structures (PDB codes: 1NVW and 1BKD) of the Ras/Sos complex to determine other important binding residues in the α-H helix that may be incorporated in the peptide mimetics. Additionally, non-essential β-branched residues (including threonine) in the wild-type α-H sequence were replaced with suitable residues to afford peptides with higher helical content (Table 1), as it was hypothesized that such modifications would improve α-helicity.

Compound | Solubility
CC[C@H](C)[C@H](NC(=O)CN1CC=CCCC(=O)N[C@@H](Cc2ccccc2)C(=O)N[C@@H](CCC(=O)O)C1=O)C(=O)N[C@@H](Cc1ccc(O)cc1)C(=O)N[C@@H](CCCNC(=N)N)C(=O)N[C@H](C(=O)N[C@@H](CC(=O)O)C(=O)N[C@H](C(=O)N[C@@H](CC(C)C)C(=O)N[C@@H](CCCNC(=N)N)C(=O)N[C@H](C(=O)N[C@@H](CCC(=O)O)C(=O)N[C@@H](CCC(=O)O)C(=O)NCC(=O)N[C@@H](CC(N)=O)C(N)=O)[C@@H](C)O)[C@@H](C)CC)[C@@H](C)O [HBS 1] | partially
CC(=O)N[C@@H](Cc1ccccc1)C(=O)N[C@@H](CCC(=O)O)C(=O)NCC(=O)N[C@@H](CC(C)C)C(=O)N[C@@H](CC(C)C)C(=O)N[C@@H](CCCNC(=N)N)C(=O)N[C@@H](CC(C)C)C(=O)N[C@@H](Cc1c[nH]c2ccccc12)C(=O)N[C@@H](CC(C)C)C(=O)N[C@@H](CCCNC(=N)N)C(=O)N[C@@H](CCCCN)C(=O)NC(C)(C)C(=O)N[C@@H](CCC(=O)O)C(=O)N[C@@H](CCC(=O)O)C(=O)NC(C)(C)C(=O)N[C@@H](CC(N)=O)C(N)=O [Peptide 10] (Ac-FEGLLRLWLRK[Aib]EE[Aib]N-NH2; N-terminus assumed) | soluble
Ac-AEGIYRADILRTEEGN-NH2 (N-terminus assumed) [Peptide 4] | partially
Ac-FEGIYRTDILR-NH2 (N-terminus assumed) [Peptide 5] | soluble
CC[C@H](C)[C@H](NC(=O)CN1CC=CCCC(=O)N[C@@H](C)C(=O)N[C@@H](CCC(=O)O)C1=O)C(=O)N[C@@H](Cc1ccc(O)cc1)C(=O)N[C@@H](CCCNC(=N)N)C(=O)N[C@@H](CC(C)C)C(=O)N[C@@H](CCC(=O)O)C(=O)N[C@@H](CC(C)C)C(=O)N[C@@H](CC(C)C)C(=O)N[C@@H](CCCCN)C(=O)N[C@@H](C)C(=O)N[C@@H](CCC(=O)O)C(=O)N[C@@H](C)C(=O)N[C@@H](C)C(=O)N[C@@H](C)C(N)=O [HBS 7^mut] | soluble
Ac-FEGLLRLWLRKAEEAN-NH2 (N-terminus assumed) [Peptide 12] | soluble
CC[C@H](C)[C@H](NC(=O)[C@H](C)N1CC=CCCC(=O)N[C@@H](Cc2ccccc2)C(=O)N[C@@H](CCC(=O)O)C1=O)C(=O)N[C@@H](Cc1ccc(O)cc1)C(=O)N[C@@H](CCCNC(=N)N)C(=O)N[C@@H](CC(C)C)C(=O)N[C@@H](CCC(=O)O)C(=O)N[C@@H](CC(C)C)C(=O)N[C@@H](CC(C)C)C(=O)N[C@@H](CCCCN)C(=O)N[C@@H](C)C(=O)N[C@@H](CCC(=O)O)C(=O)N[C@@H](CCC(=O)O)C(=O)N[C@@H](C)C(=O)N[C@@H](CC(N)=O)C(N)=O [HBS 13] | soluble
CC[C@H](C)[C@H](NC(=O)CN1CC=CCCC(=O)N[C@@H](Cc2ccccc2)C(=O)N[C@@H](CCC(=O)O)C1=O)C(=O)N[C@@H](Cc1ccc(O)cc1)C(=O)N[C@@H](CCCNC(=N)N)C(=O)N[C@@H](CC(C)C)C(=O)N[C@@H](CCC(=O)O)C(=O)N[C@@H](CCCCN)C(=O)N[C@@H](CC(C)C)C(=O)N[C@@H](CCCCN)C(=O)N[C@@H](C)C(=O)N[C@@H](CCC(=O)O)C(=O)N[C@@H](CCC(=O)O)C(=O)N[C@@H](C)C(=O)N[C@@H](CC(N)=O)C(=O)N[C@@H](CCCNC(=N)N)C(=O)N[C@@H](CCCNC(=N)N)C(N)=O [HBS 16] | soluble
Ac-FEGIYRLELLK-NH2 (N-terminus assumed) [Peptide 8] | soluble
CC[C@H](C)[C@H](NC(=O)[C@H](C)N1CC=CCCC(=O)N[C@@H](Cc2ccccc2)C(=O)N[C@@H](CCC(=O)O)C1=O)C(=O)N[C@@H](Cc1ccc(O)cc1)C(=O)N[C@@H](CCCNC(=N)N)C(=O)N[C@@H](CC(C)C)C(=O)N[C@@H](CCC(=O)O)C(=O)N[C@H]1CCCCNC(=O)CC[C@@H](C(=O)N[C@@H](CCC(=O)O)C(=O)N[C@@H](C)C(=O)N[C@@H](CC(N)=O)C(N)=O)NC(=O)[C@H](C)NC(=O)[C@H](CCCCN)NC(=O)[C@H](CC(C)C)NC1=O [HBS 15] | soluble
CC(C)C[C@H](NC(=O)CN1CC=CCCC(=O)N[C@@H](Cc2ccccc2)C(=O)N[C@@H](CCC(=O)O)C1=O)C(=O)N[C@@H](CC(C)C)C(=O)N[C@@H](CCCNC(=N)N)C(=O)N[C@@H](CC(C)C)C(=O)N[C@@H](Cc1c[nH]c2ccccc12)C(=O)N[C@@H](CC(C)C)C(=O)N[C@@H](CCCNC(=N)N)C(=O)N[C@@H](CCCCN)C(=O)NC(C)(C)C(=O)N[C@@H](CCC(=O)O)C(=O)N[C@@H](CCC(=O)O)C(=O)NC(C)(C)C(=O)N[C@@H](CC(N)=O)C(N)=O [HBS 10] | soluble
CC[C@H](C)[C@H](NC(=O)CNC(=O)[C@H](Cc1ccccc1)NC(=O)[C@H](Cc1ccccc1)NC(C)=O)C(=O)N[C@@H](Cc1ccc(O)cc1)C(=O)N[C@@H](CC(C)C)C(=O)N[C@H](C(=O)N[C@@H](CC(N)=O)C(=O)N[C@H](C(=O)N[C@@H](CC(C)C)C(=O)N[C@@H](CCCCN)C(=O)N[C@H](C(=O)N[C@@H](CCC(=O)O)C(=O)N[C@@H](CCC(=O)O)C(=O)NCC(=O)N[C@@H](CC(N)=O)C(N)=O)[C@@H](C)O)[C@@H](C)CC)[C@@H](C)O [wt (Sos929-944), reference compound] | insoluble
Ac-FEGIYRLELLKAEEAN-NH2 (N-terminus assumed) [Peptide 7] | soluble
CC[C@H](C)[C@H](NC(=O)CN1CC=CCCC(=O)N[C@@H](Cc2ccccc2)C(=O)N[C@@H](CCC(=O)O)C1=O)C(=O)N[C@@H](Cc1ccc(O)cc1)C(=O)N[C@@H](CCCNC(=N)N)C(=O)N[C@H](C(=O)N[C@@H](CCC(=O)O)C(=O)N[C@@H](CC(C)C)C(=O)N[C@@H](CC(C)C)C(=O)N[C@@H](CCCCN)C(=O)N[C@@H](C)C(=O)N[C@@H](CCC(=O)O)C(=O)N[C@@H](CCC(=O)O)C(=O)N[C@@H](C)C(=O)N[C@@H](CC(N)=O)C(N)=O)[C@@H](C)O [HBS 6] | soluble
Ac-FGEGIYRTDILRTEEGN-NH2 (N-terminus assumed) [Peptide 2] | partially
CC(C)C[C@H](NC(=O)CN1CC=CCCC(=O)N[C@@H](Cc2ccccc2)C(=O)N[C@@H](CCC(=O)O)C1=O)C(=O)N[C@@H](CC(C)C)C(=O)N[C@@H](CCCNC(=N)N)C(=O)N[C@@H](CC(C)C)C(=O)N[C@@H](Cc1c[nH]c2ccccc12)C(=O)N[C@@H](CC(C)C)C(=O)N[C@@H](CCCNC(=N)N)C(=O)N[C@@H](CCCCN)C(=O)NC(C)(C)C(=O)N[C@@H](CCC(=O)O)C(=O)N[C@@H](CCC(=O)O)C(=O)N[C@@H](C)C(=O)N[C@@H](CC(N)=O)C(N)=O [HBS 9] | soluble
Ac-AEGIYRTDILRTEEGN-NH2 (N-terminus assumed) [Peptide 3] | partially

Continued, values first:

Solubility | Compound
soluble | Ac-FEAIYRLELLKAEEAN-NH2 (N-terminus assumed) [Peptide 13]
soluble | CC[C@H](C)[C@H](NC(=O)CN1CC=CCCC(=O)N[C@@H](Cc2ccccc2)C(=O)N[C@@H](CCC(=O)O)C1=O)C(=O)N[C@@H](Cc1ccc(O)cc1)C(=O)N[C@@H](CCCNC(=N)N)C(=O)N[C@@H](CC(C)C)C(=O)N[C@@H](CCC(=O)O)C(=O)N[C@@H](CC(C)C)C(=O)N[C@@H](CC(C)C)C(=O)N[C@@H](CCCCN)C(=O)N[C@@H](C)C(=O)N[C@@H](CCC(=O)O)C(=O)N[C@@H](CCC(=O)O)C(=O)N[C@@H](C)C(=O)N[C@@H](CC(N)=O)C(N)=O [HBS 7]
soluble | CC[C@H](C)[C@H](NC(=O)CN1CC=CCCC(=O)N[C@@H](Cc2ccccc2)C(=O)N[C@@H](CCC(=O)O)C1=O)C(=O)N[C@@H](Cc1ccc(O)cc1)C(=O)N[C@@H](CCCNC(=N)N)C(=O)N[C@@H](CC(C)C)C(=O)N[C@@H](CCC(=O)O)C(=O)N[C@@H](CC(C)C)C(=O)N[C@@H](CC(C)C)C(=O)N[C@@H](CCCCN)C(=O)NC(C)(C)C(=O)N[C@@H](CCC(=O)O)C(=O)N[C@@H](CCC(=O)O)C(=O)NC(C)(C)C(=O)N[C@@H](CC(N)=O)C(N)=O [HBS 11]
soluble | CC[C@H](C)[C@H](NC(=O)CN1CC=CCCC(=O)N[C@@H](Cc2ccccc2)C(=O)N[C@@H](CCC(=O)O)C1=O)C(=O)N[C@@H](Cc1ccc(O)cc1)C(=O)N[C@@H](CCCNC(=N)N)C(=O)N[C@@H](CC(C)C)C(=O)N[C@@H](CCC(=O)O)C(=O)N[C@@H](CC(C)C)C(=O)N[C@@H](CC(C)C)C(=O)N[C@@H](CCCCN)C(N)=O [HBS 8]
soluble | CC(C)C[C@H](NC(=O)CN1CC=CCCC(=O)N[C@@H](Cc2ccccc2)C(=O)N[C@@H](CCC(=O)O)C1=O)C(=O)N[C@@H](CC(C)C)C(=O)N[C@@H](CCCNC(=N)N)C(=O)N[C@@H](CC(C)C)C(=O)N[C@@H](Cc1c[nH]c2ccccc12)C(=O)N[C@@H](CC(C)C)C(=O)N[C@@H](CCCNC(=N)N)C(=O)N[C@@H](CCCCN)C(=O)N[C@@H](C)C(=O)N[C@@H](CCC(=O)O)C(=O)N[C@@H](CCC(=O)O)C(=O)N[C@@H](C)C(=O)N[C@@H](CC(N)=O)C(N)=O [HBS 12]
soluble | Ac-FEGIYRTELLKAEEAN-NH2 (N-terminus assumed) [Peptide 6]
soluble | CC[C@H](C)[C@H](NC(=O)CNC(=O)[C@H](CCC(=O)O)NC(=O)[C@H](Cc1ccccc1)NC(C)=O)C(=O)N[C@@H](Cc1ccc(O)cc1)C(=O)N[C@@H](CCCNC(=N)N)C(=O)N[C@@H](CC(C)C)C(=O)N[C@@H](CCC(=O)O)C(=O)N[C@@H](CC(C)C)C(=O)N[C@@H](CC(C)C)C(=O)N[C@@H](CCCCN)C(=O)NC(C)(C)C(=O)N[C@@H](CCC(=O)O)C(=O)N[C@@H](CCC(=O)O)C(=O)NC(C)(C)C(=O)N[C@@H](CC(N)=O)C(N)=O [Peptide 11] (Ac-FEGIYRLELLK[Aib]EE[Aib]N-NH2; N-terminus assumed)
partially | Ac-FEGIYRTDILRTEEGN-NH2 (N-terminus assumed) [Peptide 1]
soluble | Ac-FEAIYRLEKLKAEEAN-NH2 (N-terminus assumed) [Peptide 15]

Reference: US10221215B2, “Hydrogen bond surrogate macrocycles as modulators of Ras” (New York University, priority 2011, dated 2019)
